Source: patent US5369096A, “Glycolipid derivatives” (The Nisshin Oil Mills, Ltd., priority 1992, dated 1994)

How the values were obtained:
[1] = test system: HL-60 cells adhering to vascular endothelial cells of the normal human umbilical cord; assay: inhibition of adhesion of HL-60 cells to rhIL1β-stimulated vascular endothelial cells, liposome dispersion; type: cell-based; details: 20 μg/ml equivalent; for Amount of HL-60 cancer cells adhered (fluorescence intensity): rhIL1β 200 U/ml, 485 nm/535 nm
Procedure: (§1) A solution of 200 μg of phosphatidylcholine, 100 μg of cholesterol, 7.5 μg of dicetyl phosphate and 50 μg of a compound of the invention in a mixture of chloroform/methanol=2/1 (ca. 1 ml) was evaporated under reduced pressure to dryness followed by addition of 0.25 ml of a phosphate-buffered saline solution. The mixture was ultrasonicated (an output of 90 watts) for 5 min. and stirred (a vortex mixer) for 5 min. to form a liposome dispersion.
Vascular endothelial cells of the normal human umbilical cord grown to confluence were stimulated in 24-well plates with 200 U/ml of recombinant interleukin 1β (called hereafter rhIL1β, manufactured by Genzyme) at 37° C. for 4 hours. After removal of the supernatant by suction, liposome dispersions each prepared from a compound of the invention in an amount of 20 μg/ml equivalent were added except for the rhIL1β-untreated group (sample 1) and the treated groups (samples 2 and 3). The mixtures were then allowed to react at room temperature for 30 min. Subsequently, promyelocytic leukemia cell line HL-60 with 2',7'-bis(carboxyethyl)-5,6-carboxyfluorescene acetoxymethyl ester fluorescent dye enclosed was added at a level of 1×10^6 cells per well followed by centrifugal operation at 100 rpm for 20 min. Each well was washed three times followed by addition of 0.5 ml of 0.5% Triton X-100 and stirring. The contents were divided into 100 μl portions in 96-well plates and measurement was made on a Baxter fluorometer at 485 nm/535 nm.
4: rhIL1β-treated group+compound 5A-containing liposome dispersion-treated group (2EG)*
5: rhIL1β-treated group+compound 5B-containing liposome dispersion-treated group (3EG)*
6: rhIL1β-treated group+compound 5C-containing liposome dispersion-treated group (4EG)*
7: rhIL1β-treated group+compound 5D-containing liposome dispersion-treated group (5EG)*
* 2EG, 3EG, 4EG or 5EG represents a compound of the invention containing 2, 3, 4 or 5 CH2 CH2 O units, respectively. The same shall apply hereinafter.
(§2) % Inhibition of adhesion=100-[(fluorescence intensity for rhIL1β-treated group+compound-free or a compound-containing liposome dispersion-treated group)-(fluorescence intensity for rhIL1β-untreated group)/(fluorescence intensity for rhIL1β-treated group-fluorescence intensity for rhIL1β-untreatedgroup)]×100

[2] = test system: Colo 201 cancer cells adhering to vascular endothelial cells of the normal human umbilical cord; assay: inhibition of adhesion of Colo 201 cancer cells to rhIL1β-stimulated vascular endothelial cells, liposome dispersion; type: cell-based; details: 11.8 μM equivalent; for Amount of Colo 201 cells adhered (fluorescence intensity): rhIL1β 200 U/ml, 485 nm
Procedure: as §1, §2
Vascular endothelial cells of the normal human umbilical cord grown to confluence were stimulated in 24-well plates with 200 U/ml of rhIL1β at 37° C. for 4 hours. After removal of the supernatant by suction liposome dispersions each prepared from 2→3 sialyl Le^x or a compound of the invention in an amount of 11.8 μM equivalent were added except for the rhIL1β-untreated and treated groups. The mixtures were then allowed to react at room temperature for 30 min. Subsequently, colon carcinoma cell line Colo 201 with 2',7'-bis-(carboxyethyl)-5,6-carboxyfluorescene acetoxymethyl ester fluorescent dye enclosed was added at a level of 1×10^6 cells per well followed by centrifugal operation at 100 rpm for 20 min. Each well was washed three times followed by addition of 0.5 ml of 0.5% Triton X-100 and stirring. The contents were divided into 100 μl portions in 96-well plates and measurement was made on a Baxter fluorometer at 485 nm.
4: rhIL1β-treated group+2→3 sialyl Le^x -containing liposome dispersion-treated group
5: rhIL1β-treated group+compound 5E-containing liposome dispersion-treated group (OEG)*
6: rhIL1β-treated group+compound 5A-containing liposome dispersion-treated group (2EG)
7: rhIL1β-treated group+compound 5B-containing liposome dispersion-treated group (3EG)
8: rhIL1β-treated group+compound 5C-containing liposome dispersion-treated group (4EG)
9: rhIL1β-treated group+compound 5D-containing liposome dispersion-treated group (5EG)
* OEG represents a control compound containing no CH2 CH2 O unit. The same shall apply hereinafter.
Amount adhered and % inhibition of adhesion of Colo 201 cancer cells as measured from fluorescence intensity are shown in Table 2 below.

SMILES | Amount of HL-60 cancer cells adhered (fluorescence intensity) [1] | % Inhibition of adhesion ([1]; HL-60 cells) | Amount of Colo 201 cells adhered (fluorescence intensity) [2] | % Inhibition of adhesion ([2]; Colo 201 cells)
CCCCCCCCCCCCCCC(CCCCCCCCCCCCCC)C(=O)Nc1ccc(COCCOCCO[C@@H]2O[C@H](CO)[C@@H](O[C@@H]3O[C@H](CO)[C@H](O)[C@H](O[C@]4(C(=O)O)C[C@H](O)[C@@H](NC(C)=O)[C@H]([C@H](O)[C@H](O)CO)O4)[C@H]3O)[C@H](O[C@@H]3O[C@@H](C)[C@@H](O)[C@@H](O)[C@@H]3O)[C@H]2O)cc1 [Compound 5A, O-(5-acetamido-3,5-dideoxy-D-glycero-α-D-galacto-2-nonulopyranosylonic acid)-(2→3)-O-β-D-galactopyranosyl-(1→4)-[O-α-L-fucopyranosyl-(1→3)-O-β-D-glucopyranosyl]-(1→1)-5-O-para-(2-tetradecylhexadecanoyl)aminobenzyl-3-oxapentane-1,5-diol] | 22769 | 80.04% | 246293 | 66.69%
CCCCCCCCCCCCCCC(CCCCCCCCCCCCCC)C(=O)Nc1ccc(COCCOCCOCCO[C@@H]2O[C@H](CO)[C@@H](O[C@@H]3O[C@H](CO)[C@H](O)[C@H](O[C@]4(C(=O)O)C[C@H](O)[C@@H](NC(C)=O)[C@H]([C@H](O)[C@H](O)CO)O4)[C@H]3O)[C@H](O[C@@H]3O[C@@H](C)[C@@H](O)[C@@H](O)[C@@H]3O)[C@H]2O)cc1 [Compound 5B, O-(5-acetamido-3,5-dideoxy-D-glycero-α-D-galacto-2-nonulopyranosylonic acid)-(2→3)-O-β-D-galactopyranosyl-(1→4)-[O-α-L-fucopyranosyl-(1→3)-O-β-D-glucopyranosyl]-(1→1)-8-O-para-(2-tetradecylhexadecanoyl)aminobenzyl-3,6-dioxaoctane-1,8-diol] | 17957 | – | 212789 | –
CCCCCCCCCCCCCCC(CCCCCCCCCCCCCC)C(=O)Nc1ccc(COCCOCCOCCOCCO[C@@H]2O[C@H](CO)[C@@H](O[C@@H]3O[C@H](CO)[C@H](O)[C@H](O[C@]4(C(=O)O)C[C@H](O)[C@@H](NC(C)=O)[C@H]([C@H](O)[C@H](O)CO)O4)[C@H]3O)[C@H](O[C@@H]3O[C@@H](C)[C@@H](O)[C@@H](O)[C@@H]3O)[C@H]2O)cc1 [Compound 5C, O-(5-acetamido-3,5-dideoxy-D-glycero-α-D-galacto-2-nonulopyranosylonic acid)-(2→3)-O-β-D-galactopyranosyl-(1→4)-[O-α-L-fucopyranosyl-(1→3)-O-β-D-glucopyranosyl]-(1→1)-11-O-para-(2-tetradecylhexadecanoyl)aminobenzyl-3,6,9-trioxaundecane-1,11-diol] | 26907 | – | 240330 | –
CCCCCCCCCCCCCCC(CCCCCCCCCCCCCC)C(=O)Nc1ccc(COCCOCCOCCOCCOCCO[C@@H]2O[C@H](CO)[C@@H](O[C@@H]3O[C@H](CO)[C@H](O)[C@H](O[C@]4(C(=O)O)C[C@H](O)[C@@H](NC(C)=O)[C@H]([C@H](O)[C@H](O)CO)O4)[C@H]3O)[C@H](O[C@@H]3O[C@@H](C)[C@@H](O)[C@@H](O)[C@@H]3O)[C@H]2O)cc1 [Compound 5D, O-(5-acetamido-3,5-dideoxy-D-glycero-α-D-galacto-2-nonulopyranosylonic acid)-(2→3)-O-β-D-galactopyranosyl-(1→4)-[O-α-L-fucopyranosyl-(1→3)-O-β-D-glucopyranosyl]-(1→1)-5-O-para-(2-tetradecylhexadecanoyl)aminobenzyl-3,6,9,12-tetraoxatetradecane-1,14-diol] | 17405 | – | 240554 | –
